What was measured:
[1] = molecular target: T1, digoxigenin-labelled MAA lectin (Maackia amurensis, UniProt P0DKL3); test: Inhibition of digoxigenin-labelled MAA lectin binding to immobilized fetuin sugar derivatives on streptavidin microtitre plate; conditions: fetuin sugar derivatives (10 pmol) on the MTP
T1 sequence (P0DKL3 30-278 limits assumed): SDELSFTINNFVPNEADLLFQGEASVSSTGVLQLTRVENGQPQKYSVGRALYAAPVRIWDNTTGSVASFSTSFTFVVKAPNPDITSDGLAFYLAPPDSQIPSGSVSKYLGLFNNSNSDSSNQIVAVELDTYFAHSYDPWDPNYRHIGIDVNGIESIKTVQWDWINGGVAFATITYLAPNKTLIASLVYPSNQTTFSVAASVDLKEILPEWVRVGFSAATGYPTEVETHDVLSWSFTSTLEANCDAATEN

[2] = molecular target: digoxigenin-labelled SNA lectin (Sambucus nigra, UniProt Q41358); format: binding; conditions: saccharide added to wells containing SNA as the lectin; fetuin sugar derivatives (10 pmol)
[3] = molecular target: T1, digoxigenin-labelled MAA lectin; test: Detection of immobilized sugar derivative with digoxigenin-labelled MAA lectin on streptavidin microtitre plate; format: binding; conditions: 0.5-20 pmol/well, read at 405 nm
Method: Derivatized N-acetyl-neuraminosyl-2,3-D-lactose in TBS is incubated for 4 h at room temperature on a microtitre plate coated with streptavidin as a model substance to test the standard conditions. After immobilization of the sugar derivative (0.5-20 pmol/well in the microtitre plate; dissolved in TBS) the wells are washed five times with 0.25 ml TBS. In order to bind the digoxigenin-labelled MAA lectin (specific for N-acetyl-neuraminosyl-α(2-3)Gal residues) 1-10 μg of the lectin is dissolved in 1 ml TBSM (TBSM=TBS containing 1 mM MgCl2, 1 mM MnCl2 and 1 mM CaCl2) containing 0.5% blocking reagent (Boehringer Mannheim) and subsequently 0.2 ml of the lectin solution/well is incubated for 1 hour at room temperature while shaking gently. After the lectin has bound the wells are washed five times with 0.25 ml buffer (TBST=TBS containing 0.1% Tween-20®). […] The colour development is read at 405 nm and RT after an incubation period of ca. 20 to 30 min. […]
For the detection of N-acetyl-neuraminosyl-2,3-D-lactose the wells are washed five times with 0.25 ml TBS after immobilization of the sugar derivative (0.5-20 pmol/well in the microtitre plate; dissolved in TBS). […] The colour development is read at 405 nm and RT after an incubation period of ca. 20 to 30 min. […]

[4] = Stability of marker and saccharide conjugates (HPLC analysis); format: physicochemical; conditions: after one week in MeOH at 25° C.

digoxigenin-labelled SNA lectin, sequence (Q41358 309-570 limits assumed): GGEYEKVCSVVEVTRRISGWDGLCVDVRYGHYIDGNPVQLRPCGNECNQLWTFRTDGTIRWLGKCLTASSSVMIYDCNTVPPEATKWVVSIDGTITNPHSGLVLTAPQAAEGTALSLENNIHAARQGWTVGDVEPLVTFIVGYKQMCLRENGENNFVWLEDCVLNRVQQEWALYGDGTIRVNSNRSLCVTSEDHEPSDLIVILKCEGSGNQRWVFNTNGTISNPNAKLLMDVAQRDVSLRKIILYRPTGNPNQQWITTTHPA
digoxigenin-labelled SNA lectin, sequence (Q41358 29-292 partner limits assumed): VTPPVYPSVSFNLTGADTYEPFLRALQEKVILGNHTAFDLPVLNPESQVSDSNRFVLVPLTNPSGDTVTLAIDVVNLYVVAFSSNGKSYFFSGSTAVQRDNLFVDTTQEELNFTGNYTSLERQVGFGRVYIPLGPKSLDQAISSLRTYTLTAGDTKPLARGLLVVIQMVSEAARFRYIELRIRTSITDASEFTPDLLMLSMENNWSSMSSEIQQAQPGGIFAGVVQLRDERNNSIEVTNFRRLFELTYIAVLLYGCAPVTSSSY

In the case of `CC(=O)NC1C(O)CC(OC2C(O)C(CO)OC(OC3C(CO)OC(O)C(O)C3O)C2O)(C(=O)O)OC1C(O)C(O)CO` [N-acetyl-neuraminosyl-2,3-D-lactose], the “signal strength, % of the value without inhibition” value ([1]; 200 pmol added) is reported as “about 50%”, the “signal strength, % of the value without inhibition” value ([1]; 500 pmol added) is reported as “about 15%” and the “inhibition of lectin signal” value [2] is reported as “no inhibition”.

With `CC(=O)NC1C(O)CC(OC2C(O)C(CO)OC(OC3C(CO)OC(NNC(=O)NCCNC(=O)c4ccccc4N=Nc4ccc(O)cc4)C(O)C3O)C2O)(C(=O)O)OC1C(O)C(O)CO` (stereo not drawn) the detection limit ([3]; conjugate with BNAH (Example 6)) was 0.5 pmol and the detection limit ([3]; conjugate with marker 4 (Example 4)) was 0.5 pmol.

In the case of `NNC(=O)NCCNC(=O)c1ccccc1N=Nc1ccc(O)cc1` [marker 4, 2-[2'-(4"-hydroxybenzeneazo)-benzoic acid amido]-ethylsemicarbazide], the “decomposition of the marker” value [4] is reported as “no decomposition”.
